Counter-ions that a name gives are not always drawn. Like-named read-outs stand apart in the source and are kept apart here.
What was measured:
[1] = target: T1, SARS-CoV-2 PLpro (nsp3 1564–1878) (Severe acute respiratory syndrome coronavirus 2, UniProt P0DTD1); assay: biochemical; parameters: FRET-quenched peptide (Pro3) cleavage by PLpro, 10 min pre-incubation, slope over 20 min, normalised to no-compound control; settings: low concentration screen, read-out: % of control remaining
[2] = target: T1, SARS-CoV-2 PLpro (nsp3 1564–1878); assay: biochemical; parameters: FRET-quenched peptide (Pro3) cleavage by PLpro, 10 min pre-incubation, slope over 20 min, normalised to no-compound control; settings: high concentration screen, read-out: % of control remaining

## CN[C@@H]1C[C@H]2O[C@@](C)([C@@H]1OC)n1c3ccccc3c3c4c(c5c6ccccc6n2c5c31)C(=O)NC4 [Staurosporine, Streptomyces sp.]
[1]; Well no.=2656
  remaining activity at 1.25 µM: 94.8%
[1]; Well no.=2661
  remaining activity at 1.25 µM: 89.3%
[2]; Well no.=2656
  remaining activity at 3.75 µM: 95%
[2]; Well no.=2661
  remaining activity at 3.75 µM: 84.8%

## Nc1c(/N=N/c2ccc(-c3ccc(/N=N/c4cc(S(=O)(=O)O)c5ccccc5c4N)cc3)cc2)cc(S(=O)(=O)O)c2ccccc12 [Congo Red]
[1]; Well no.=8614
  remaining activity at 1.25 µM: 101%
[2]; Well no.=8614
  remaining activity at 3.75 µM: 104%

## Cn1nc(C(F)(F)F)cc1-c1cnc(N2CCc3cc(S(=O)(=O)Nc4c(F)cc(Cl)cc4F)cc(N4CCCC4=O)c32)nc1 [MGAT2-IN-1]
[1]; Well no.=8422
  remaining activity at 1.25 µM: 94.8%
[2]; Well no.=8422
  remaining activity at 3.75 µM: 93.1%

## O=C1Cc2c([nH]c3ccc(Br)cc23)-c2ccccc2N1 [Kenpaullone]
[1]; Well no.=783
  remaining activity at 1.25 µM: 102%
[1]; Well no.=2554
  remaining activity at 1.25 µM: 104%
[2]; Well no.=783
  remaining activity at 3.75 µM: 102%
[2]; Well no.=2554
  remaining activity at 3.75 µM: 100%

## CC(C)(C)NCC(O)COc1nsnc1N1CCOCC1 (stereo not drawn) [S(-)-Timolol maleate]
[1]; Well no.=1483
  remaining activity at 1.25 µM: 97.1%
[2]; Well no.=1483
  remaining activity at 3.75 µM: 96%

## CCCCCCCC[C@H](O)/C=C/C=C\C=C\[C@H](O)CCCC(=O)O [Leukotriene B3]
[1]; Well no.=4421
  remaining activity at 1.25 µM: 102%
[2]; Well no.=4421
  remaining activity at 3.75 µM: 101%

## NC(CCCP(=O)(O)O)C(=O)O (racemic)
[1]; Well no.=65
  remaining activity at 1.25 µM: 103%
[2]; Well no.=65
  remaining activity at 3.75 µM: 97.5%

## O=C(O)CC[C@H]1CC[C@@](c2cc(F)ccc2F)(S(=O)(=O)c2ccc(Cl)cc2)CC1 [MK-0752]
[1]; Well no.=4639
  remaining activity at 1.25 µM: 97.6%
[2]; Well no.=4639
  remaining activity at 3.75 µM: 99.5%

## COc1ccc(OC)c(C2C(C#N)=C(N)Oc3n[nH]c(-c4ccc5ccccc5c4)c32)c1 (stereo not shown) [RBC8]
[1]; Well no.=7809
  remaining activity at 1.25 µM: 105%
[2]; Well no.=7809
  remaining activity at 3.75 µM: 113%

## c1ccc2c(c1)[nH]c1cnccc12 [Norharmane]
[1]; Well no.=3262
  remaining activity at 1.25 µM: 101%
[2]; Well no.=3262
  remaining activity at 3.75 µM: 98.5%

## CNCCC(Oc1ccccc1OC)c1ccccc1 (stereo not shown) [Nisoxetine hydrochloride]
[1]; Well no.=892
  remaining activity at 1.25 µM: 100%
[2]; Well no.=892
  remaining activity at 3.75 µM: 99.8%

## CCCCCCCCCCC/C=C\CCCCC(=O)O [6(Z)-Octadecenoic acid]
[1]; Well no.=4316
  remaining activity at 1.25 µM: 103%
[2]; Well no.=4316
  remaining activity at 3.75 µM: 98.8%

## CC(C)=CCc1c(O)ccc(C(=O)/C=C/c2ccc(O)cc2)c1O [Isobavachalcone]
[1]; Well no.=6538
  remaining activity at 1.25 µM: 102%
[2]; Well no.=6538
  remaining activity at 3.75 µM: 97.1%

## CN1C(=O)c2sccc2N(C)c2nc(Nc3ccc(S(N)(=O)=O)cc3)ncc21 [XMU-MP-1]
[1]; Well no.=8268
  remaining activity at 1.25 µM: 97%
[2]; Well no.=8268
  remaining activity at 3.75 µM: 91.6%

## COc1cc2ncnc(Nc3ccc(OCc4ccccc4)cc3)c2cc1OC [EGFR/ErbB-2 Inhibitor]
[1]; Well no.=2373
  remaining activity at 1.25 µM: 95.9%
[2]; Well no.=2373
  remaining activity at 3.75 µM: 97.2%

## CN1CCN2c3ncccc3Cc3ccccc3C2C1 (stereo not shown) [Mirtazapine]
[1]; Well no.=6564
  remaining activity at 1.25 µM: 106%
[2]; Well no.=6564
  remaining activity at 3.75 µM: 106%

## NC(CO)C(=O)NNCc1ccc(O)c(O)c1O (stereo not shown) [Benserazide]
[1]; Well no.=1903
  remaining activity at 1.25 µM: 97.8%
[2]; Well no.=1903
  remaining activity at 3.75 µM: 97.7%

## NC(=O)c1cc(N2CC2)c([N+](=O)[O-])cc1[N+](=O)[O-] [CB 1954]
[1]; Well no.=189
  remaining activity at 1.25 µM: 94.7%
[2]; Well no.=189
  remaining activity at 3.75 µM: 95.5%

## Cc1cc(C(C)(C)C)c(O)c(C)c1CC1=NCCN1 [Oxymetazoline hydrochloride]
[1]; Well no.=896
  remaining activity at 1.25 µM: 103%
[2]; Well no.=896
  remaining activity at 3.75 µM: 101%

## Clc1ccccc1CN1CCc2sccc2C1 [Ticlopidine (hydrochloride)]
[1]; Well no.=6270
  remaining activity at 1.25 µM: 107%
[1]; Well no.=8213
  remaining activity at 1.25 µM: 108%
[2]; Well no.=6270
  remaining activity at 3.75 µM: 109%
[2]; Well no.=8213
  remaining activity at 3.75 µM: 100%

## Nn1nnc2ccccc21 [1-Aminobenzotriazole]
[1]; Well no.=253
  remaining activity at 1.25 µM: 98.6%
[2]; Well no.=253
  remaining activity at 3.75 µM: 99%

## CO/N=C(\C(=O)N[C@@H]1C(=O)N2C(C(=O)O)=C(CSC(=O)c3ccco3)CS[C@H]12)c1csc(N)n1 [Ceftiofur HCl]
[1]; Well no.=5288
  remaining activity at 1.25 µM: 90.5%
[2]; Well no.=5288
  remaining activity at 3.75 µM: 91.7%

## CN1CCN(C2Cc3ccccc3Sc3ccc(Cl)cc32)CC1 (racemic)
[1]; Well no.=804
  remaining activity at 1.25 µM: 104%
[2]; Well no.=804
  remaining activity at 3.75 µM: 105%

## Cc1ccc(C(=O)Nc2cccc(C(F)(F)F)c2)cc1Nc1nc(-c2cccnc2)nc2c1cnn2C [NVP-BHG712]
[1]; Well no.=4820
  remaining activity at 1.25 µM: 100%
[2]; Well no.=4820
  remaining activity at 3.75 µM: 96.9%

## O=c1[nH]c(=O)n([C@H]2C[C@H](O)[C@@H](CO)O2)cc1/C=C/Br [Brivudine]
[1]; Well no.=8845
  remaining activity at 1.25 µM: 107%
[2]; Well no.=8845
  remaining activity at 3.75 µM: 98.3%

## Cc1nc(-c2ccc(-c3ccc(C(=O)N4CCc5cc6c(cc54)C4(CCN(C)CC4)CO6)cc3)c(C)c2)no1 [SB 224289 hydrochloride]
[1]; Well no.=1423
  remaining activity at 1.25 µM: 96.6%
[2]; Well no.=1423
  remaining activity at 3.75 µM: 97.3%

## C[C@@H]1COC(Nc2ccc3ncnc(Nc4ccc(OCc5nccs5)c(Cl)c4)c3c2)=N1 [ARRY334543]
[1]; Well no.=5073
  remaining activity at 1.25 µM: 102%
[2]; Well no.=5073
  remaining activity at 3.75 µM: 106%

## N#C/C(=C\c1ccc(O)c(O)c1)C(=O)NCc1ccccc1 [AG 490]
[1]; Well no.=2607
  remaining activity at 1.25 µM: 95.5%
[2]; Well no.=2607
  remaining activity at 3.75 µM: 97%

## CC(=O)OCC(=O)NCCCOc1cccc(CN2CCCCC2)c1 [Roxatidine (Acetate Hydrochloride)]
[1]; Well no.=6701
  remaining activity at 1.25 µM: 102%
[2]; Well no.=6701
  remaining activity at 3.75 µM: 105%

## CC[C@@H](N)C(=O)O [D(-)-2-Aminobutyric acid]
[1]; Well no.=7701
  remaining activity at 1.25 µM: 97.2%
[2]; Well no.=7701
  remaining activity at 3.75 µM: 92.5%

## Oc1cc2c(cc1O)[C@H]1c3ccccc3CN[C@@H]1CC2 (racemic) [Dihydrexidine hydrochloride]
[1]; Well no.=645
  remaining activity at 1.25 µM: 87.6%
[2]; Well no.=645
  remaining activity at 3.75 µM: 91.3%

## OCCN1CCN(CC/C=C2/c3ccccc3Sc3ccc(C(F)(F)F)cc32)CC1 [cis-(Z)-Flupenthixol dihydrochloride]
[1]; Well no.=617
  remaining activity at 1.25 µM: 99.6%
[2]; Well no.=617
  remaining activity at 3.75 µM: 98.7%

## COc1ccc(CCCOC(Cn2ccnc2)c2ccc(OC)cc2)cc1 (stereo not shown) [SKF 96365]
[1]; Well no.=1412
  remaining activity at 1.25 µM: 98.9%
[2]; Well no.=1412
  remaining activity at 3.75 µM: 100%

## CCCCC/C=C\C/C=C\C/C=C\C/C=C\CCCC(=O)C(F)(F)F [AACOCF3]
[1]; Well no.=4486
  remaining activity at 1.25 µM: 102%
[2]; Well no.=4486
  remaining activity at 3.75 µM: 102%

## Cc1cccc(Nc2cc(Cl)nc(SCC(=O)O)n2)c1C [WY-14643]
[1]; Well no.=4570
  remaining activity at 1.25 µM: 97.3%
[2]; Well no.=4570
  remaining activity at 3.75 µM: 103%

Source: paper PMC8286840, “Identifying SARS-CoV-2 antiviral compounds by screening for small molecule inhibitors of Nsp3 papain-like protease” (Biochemical Journal, 2021)
